Laboratory results as given in publication PMC3034247 (Cell metabolism, 2010).
Substitutions are numbered along the chain they refer to.

Experiments:
Experiment in all cases: [3H]cholesterol saturation binding, Ni-NTA capture, scintillation counting
NPC2 (NPC2-His10) [1] = molecular target: T1, NPC2 (NPC2-His10) (Homo sapiens, UniProt P61916)
T1 sequence (P61916 20-151): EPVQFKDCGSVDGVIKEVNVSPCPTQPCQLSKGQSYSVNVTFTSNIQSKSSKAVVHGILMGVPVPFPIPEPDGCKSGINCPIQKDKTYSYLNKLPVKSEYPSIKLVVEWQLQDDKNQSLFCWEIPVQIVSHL

NPC2 (NPC2-His10) [2] = molecular target: T2, NPC2 (NPC2-His10) (Homo sapiens, UniProt P61916, V81A)
T2 sequence (P61916 20-151 V81A): T1 sequence (P61916 20-151) with V62A

NPC2 (NPC2-His10) [3] = molecular target: T3, NPC2 (NPC2-His10) (Homo sapiens, UniProt P61916, V81D)
T3 sequence (P61916 20-151 V81D): T1 sequence (P61916 20-151) with V62D

Compound: CC(C)CCC[C@@H](C)[C@H]1CC[C@H]2[C@@H]3CC=C4C[C@@H](O)CC[C@]4(C)[C@H]3CC[C@]12C [cholesterol]
- Kd (NPC2 (NPC2-His10) [1]): 81 nM
- Kd (NPC2 (NPC2-His10) [2]): 80 nM
- Kd (NPC2 (NPC2-His10) [3]): 72 nM
